Measurements as given in US20260257993A1, “COMPOUND, RUBBER BLEND CONTAINING THE COMPOUND, VEHICLE TIRE COMPRISING THE RUBBER BLEND IN AT LEAST ONE COMPONENT, PROCESS FOR PRODUCING THE COMPOUND, AND USE OF THE COMPOUND AS AN AGEING PROTECTANT AND/OR ANTIOZONANT AND/OR DYE” (Continental Reifen Deutschland GmbH, priority 2021, published 2026).

Test: Measurement of oxidation induction time (OIT) by DSC
Conditions: with liquid polyisoprene LIR-50, isothermal 180° C., O2 atmosphere 50 mL/min, DSC peak
Description: The compounds of formula II) and III) were investigated under laboratory conditions for their potential protective effect as aging stabilizers by measurement of the oxidation induction time.
To this end the compounds of formula II) and III) and 6-PPD in each case together with a polymer (liquid synthetic polyisoprene (IR), LIR-50, Kuraray, weight average molecular weight distribution Mw=54 000 g/mol, glass transition temperature Tg=−63° C.) were heated at constant temperature (180° C.) until onset of oxidation (start temperature 35° C., heating to 170° C. at a heating rate of 20 K/min (kelvin per minute), heating to 180° C. at a heating rate of 1 K/min; purge gas: nitrogen (N2), volume flow 50 mL/min). The specimen was isothermally maintained for 5 minutes at 180° C. under an N2 atmosphere and the atmosphere was then switched to an 02 atmosphere (volume flow 50 mL/min).
Oxidation was determined via a peak using DSC (differential scanning calorimetry).
The time in minutes to oxidation was measured.
With `CC(C)CC(C)Nc1ccc(Nc2ccccc2)cc1` (stereo not drawn) [6-PPD, N-(1,3-dimethylbutyl)-N′-phenyl-p-phenylenediamine, reference compound] the “Oxidation induction time: time to oxidation” value (shortened to “Oxidation induction time: time”) was 116 ± 10 min. For `CC(C)CC(C)Nc1ccc2[nH]c(-c3ccccc3)cc2c1` (stereo not drawn) [formula II), 2-phenyl-5-(1,3-dimethylbutylamino)-1H-indole], the “Oxidation induction time: time” value was 105 ± 10 min. In the case of `CC(C)CC(C)Nc1ccc2[nH]c(C3CCCCC3)cc2c1` (stereo not drawn) [formula III), 2-cyclohexyl-5-(1,3-dimethylbutylamino)-1H-indole], the “Oxidation induction time: time” value is reported as 205 ± 10 min.
